From patent publication US6340693B1, “Protective agent for nervous system structural cells” (Toray Industries, Inc., priority 1997, dated 2002)

What was measured:
Format in all cases: cell-based
[1] = system: Human glioma cells; test: Human glioma cell disorder due to peroxide (TBH)
Experimental: Human glioma cells were separated from a patient of glioma (person), and then subjected to subculture in a 10% FCS-D-MEM medium (a Dulbecco's MEM medium (Nissui) containing 10% fetal calf serum). The cells were dispersed into single cells by trypsin-EDTA treatment, and then a 10% FCS-D-MEM medium was added to recover the cells, followed by centrifugation at 1200 rpm for 5 minutes. After centrifugation, the cells were prepared to 1×10^6 cells/ml by a HEPES buffer (Hanks' solution (Nissui) containing 15 mM HEPES, pH 7.4), and beraprost sodium (0.1 to 30 μM) was added to the cell solution, followed by incubation at 37° C. for 30 minutes. Then, […] of TBH (tertiary butyl hydroperoxide, Funakoshi) as a peroxide was added to the cell solution, followed by further incubation at 37° C. for 30 minutes. After reaction was stopped under ice cooling, some of the cells are collected, and divided into living cells and dead cells by trypan blue staining, followed by counting to determine the survival rate of the cells. The residual cells were centrifuged at 2000 rpm for 5 minutes, and then the amount of thiobarbituric acid reaction substance (TBARS amount) was measured according to the known method (Ohkawa, H., Ohnishi, N. and Yagi, K. Anal. Biochem., 95, 351-358 (1979)) and considered as an index of peroxidation of cell membrane lipid. […]

[2] = system: nerve cells derived from a rat fetus (hippocampus); test: Survival of cultured isolated nerve cells (hippocampus); conditions: serum-free DF medium, 3 days culture, 10 μM beraprost sodium, student t-test vs control
Source text: (§1) Effect of improving survival rate of cultured isolated nerve cells:
(§2) The protective effect of beraprost sodium on nerve cells was examined by using nerve cells derived from a rat fetus. The cerebral cortex and hippocampus were obtained from the brain of a rat fetus of 17 days age, and isolated nerve cells were obtained therefrom by trypsin and pipetting treatment. The thus-obtained cells were inoculated into a 48-well culture plate coated with polylysine at a cell concentration of 5×10^3 cells/cm^2; followed by culture in a DF medium containing no serum at 37° C. for 3 days. After completion of culture, the cells were fixed by formalin, and the number of cells having axons was measured under a microscope. Beraprost sodium was added in an amount of each of 1, 10 and 100 μM during culture.
(§3) The results are shown in FIG. 1 (In the figure, * and ** represent student t-test results. *: p<0.05 vs control. **: p<0.01 vs control. This applies to the description below). The nerve cells gradually died and fell under the conditions in this example, beraprost sodium prevented falling of the nerve cells, and increased the number of survival cells depending upon the concentration.

[3] = system: nerve cells derived from a rat fetus (cerebral cortex); test: Survival of cultured isolated nerve cells (cerebral cortex); conditions: serum-free DF medium, 3 days culture, 1 and 10 μM beraprost sodium, student t-test vs control
Source text: as §1, §2, §3

beraprost sodium
decrease in the survival rate of cells by TBH treatment (trypan blue staining) ([1]; 0.1 μM or more of beraprost sodium, 30 min pre-incubation, then 800 μm TBH for 30 min at 37° C.): significantly (p<0.01) suppressed | TBARS amount as an index of peroxidation of cell membrane lipid (increase by TBH treatment) ([1]; beraprost sodium 0.1 to 30 μM, TBH-treated cells): did not affect such an increase | number of survival cells (cells having axons) [2]: increase was significant | number of survival cells (cells having axons) [3]: increase was significant
